The values that follow come from ChEMBL document CHEMBL3822442, “Synthesis and Pharmacological Characterization of Novel Glucagon-like Peptide-2 (GLP-2) Analogues with Low Systemic Clearance” (J Med Chem, 2016).

The test system of data set [1] is HEK293. The data set can be described thus: Selectivity ratio of EC50 for human GLP1R expressed in HEK293 cells to EC50 for human GLP2R expressed in HEK293. In kind it is cell-based.
Data set [2] addresses T1, Glucagon-like peptide 2 receptor (Homo sapiens, UniProt O95838).
T1 sequence (O95838 whole entry): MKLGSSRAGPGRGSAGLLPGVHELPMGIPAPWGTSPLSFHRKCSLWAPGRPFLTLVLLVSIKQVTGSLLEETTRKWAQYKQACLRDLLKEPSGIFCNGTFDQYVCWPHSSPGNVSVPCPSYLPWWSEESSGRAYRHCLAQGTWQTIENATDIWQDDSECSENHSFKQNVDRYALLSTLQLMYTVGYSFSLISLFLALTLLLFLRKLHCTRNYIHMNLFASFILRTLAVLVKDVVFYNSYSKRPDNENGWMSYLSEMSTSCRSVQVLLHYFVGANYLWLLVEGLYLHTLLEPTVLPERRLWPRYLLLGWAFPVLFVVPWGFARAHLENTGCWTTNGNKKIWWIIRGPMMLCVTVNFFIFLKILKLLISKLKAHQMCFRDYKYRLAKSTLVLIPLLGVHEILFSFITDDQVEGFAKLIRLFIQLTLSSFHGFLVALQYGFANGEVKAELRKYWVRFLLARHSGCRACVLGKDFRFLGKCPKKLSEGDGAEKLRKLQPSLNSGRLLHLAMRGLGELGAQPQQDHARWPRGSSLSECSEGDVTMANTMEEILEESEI
Put plainly: Agonist activity at human GLP2R expressed in HEK293 cells after 5 hrs by luciferase reporter gene assay. Type of data set: cell-based.

For data set [3], the target named is Glucagon-like peptide 1 receptor (Homo sapiens, UniProt P43220). Put plainly: Agonist activity at human GLP1R expressed in HEK293 cells after 5 hrs by luciferase reporter gene assay. Type of data set: cell-based.
Sequence of Glucagon-like peptide 1 receptor (P43220 whole entry): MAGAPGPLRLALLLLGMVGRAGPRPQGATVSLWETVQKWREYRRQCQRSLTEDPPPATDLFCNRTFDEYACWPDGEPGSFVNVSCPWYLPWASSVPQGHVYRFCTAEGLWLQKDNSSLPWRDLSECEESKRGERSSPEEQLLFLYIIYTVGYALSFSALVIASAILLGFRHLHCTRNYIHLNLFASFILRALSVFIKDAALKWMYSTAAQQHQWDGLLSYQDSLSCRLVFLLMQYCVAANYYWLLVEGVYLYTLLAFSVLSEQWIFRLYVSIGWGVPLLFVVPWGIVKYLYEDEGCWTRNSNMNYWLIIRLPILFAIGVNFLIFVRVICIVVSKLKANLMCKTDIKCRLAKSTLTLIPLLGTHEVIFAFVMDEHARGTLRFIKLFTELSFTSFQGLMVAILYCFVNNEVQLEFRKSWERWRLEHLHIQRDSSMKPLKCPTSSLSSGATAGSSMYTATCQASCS
Data set [4] is described as follows: Systemic clearance in Sprague-Dawley rat at 0.2 mg/kg, iv through cassette dosing measured up to 300 mins by LC/MS/MS analysis. The settings on record: in vivo. In kind it is ADME, organism-based.

As to `CCCCC(NC(=O)[C@H](CCC(=O)O)NC(=O)[C@H](CC(=O)O)NC(=O)[C@H](CO)NC(=O)[C@H](Cc1ccccc1)NC(=O)[C@H](CO)NC(=O)CNC(=O)[C@H](CC(=O)O)NC(=O)CNC(=O)[C@@H](N)Cc1cnc[nH]1)C(=O)N[C@H](Cc1ccccc1)C(=O)N[C@H](C(=O)N[C@H](C(=O)N[C@@H](CC(C)C)C(=O)N[C@@H](CC(=O)O)C(=O)N[C@@H](Cc1ccccc1)C(=O)N[C@@H](CC(C)C)C(=O)N[C@@H](C)C(=O)N[C@@H](C)C(=O)N[C@@H](CCCNC(=N)N)C(=O)N[C@@H](CC(=O)O)C(=O)N[C@@H](Cc1ccccc1)C(=O)N[C@H](C(=O)N[C@@H](CC(N)=O)C(=O)N[C@@H](Cc1c[nH]c2ccccc12)C(=O)N[C@@H](CC(C)C)C(=O)N[C@H](C(=O)N[C@@H](CCC(N)=O)C(=O)N[C@H](C(=O)N[C@@H](CCCCN)C(=O)N[C@H](C(=O)N[C@H](C(=O)N[C@@H](CC(=O)O)C(N)=O)[C@@H](C)O)[C@@H](C)CC)[C@@H](C)O)[C@@H](C)CC)[C@@H](C)CC)[C@@H](C)CC)[C@@H](C)O` (stereo partly drawn), the Ratio EC50 in data set [1] was greater than 16000. The EC50 in data set [2] is 0.06 nM; in data set [3] it was greater than 1000 nM. This molecule also gave a clearance in data set [4] of 0.24 mL/min/kg.

With `CCCCC(NC(=O)[C@H](CCC(=O)O)NC(=O)[C@H](CC(=O)O)NC(=O)[C@H](CO)NC(=O)[C@H](Cc1ccccc1)NC(=O)[C@H](CO)NC(=O)CNC(=O)[C@H](CC(=O)O)NC(=O)CNC(=O)[C@@H](N)Cc1cnc[nH]1)C(=O)N[C@H](Cc1cccs1)C(=O)N[C@H](C(=O)N[C@H](C(=O)N[C@@H](CC(C)C)C(=O)N[C@@H](CC(=O)O)C(=O)N[C@@H](CC(C)C)C(=O)N[C@@H](CC(C)C)C(=O)N[C@@H](C)C(=O)N[C@@H](C)C(=O)N[C@@H](CCCNC(=N)N)C(=O)N[C@@H](CC(=O)O)C(=O)N[C@@H](Cc1ccccc1)C(=O)N[C@H](C(=O)N[C@@H](CC(N)=O)C(=O)N[C@@H](Cc1c[nH]c2ccccc12)C(=O)N[C@@H](CC(C)C)C(=O)N[C@H](C(=O)N[C@@H](CCC(N)=O)C(=O)N[C@H](C(=O)N[C@@H](CCCCN)C(N)=O)[C@@H](C)O)[C@@H](C)CC)[C@@H](C)CC)[C@@H](C)CC)[C@@H](C)O` (stereo partly drawn), the Ratio EC50 in data set [1] is greater than 12000. Besides, the EC50 in data set [2] was 0.08 nM; in data set [3] it was greater than 1000 nM. This molecule had a clearance in data set [4] of 0.33 mL/min/kg.

Consider `CCCCC(NC(=O)[C@H](CCC(=O)O)NC(=O)[C@H](CC(=O)O)NC(=O)[C@H](CO)NC(=O)[C@H](Cc1ccccc1)NC(=O)[C@H](CO)NC(=O)CNC(=O)[C@H](CC(=O)O)NC(=O)CNC(=O)[C@@H](N)Cc1cnc[nH]1)C(=O)N[C@H](Cc1cccs1)C(=O)N[C@H](C(=O)N[C@H](C(=O)N[C@@H](CC(C)C)C(=O)N[C@@H](CC(=O)O)C(=O)N[C@@H](Cc1ccccc1)C(=O)N[C@@H](CC(C)C)C(=O)N[C@@H](C)C(=O)N[C@@H](C)C(=O)N[C@@H](CCCNC(=N)N)C(=O)N[C@@H](CC(=O)O)C(=O)N[C@@H](Cc1ccccc1)C(=O)N[C@H](C(=O)N[C@@H](CC(N)=O)C(=O)N[C@@H](Cc1c[nH]c2ccccc12)C(=O)N[C@@H](CC(C)C)C(=O)N[C@H](C(=O)N[C@@H](CCC(N)=O)C(=O)N[C@H](C(=O)N[C@@H](CCCCN)C(=O)N[C@H](C(=O)N[C@H](C(=O)N[C@@H](CC(=O)O)C(N)=O)[C@@H](C)O)[C@@H](C)CC)[C@@H](C)O)[C@@H](C)CC)[C@@H](C)CC)[C@@H](C)CC)[C@@H](C)O` (stereo partly drawn), for which the Ratio EC50 in data set [1] was greater than 14000. The 50% effective concentration (EC50) in data set [2] is 0.07 nM; in data set [3] it was greater than 1000 nM. Also, the clearance in data set [4] amounted to 0.15 mL/min/kg.

Regarding `CCCCC(NC(=O)[C@H](CCC(=O)O)NC(=O)[C@H](CC(=O)O)NC(=O)[C@H](CO)NC(=O)[C@H](Cc1ccccc1)NC(=O)[C@H](CO)NC(=O)CNC(=O)[C@H](CC(=O)O)NC(=O)CNC(=O)[C@@H](N)Cc1cnc[nH]1)C(=O)N[C@H](Cc1ccccc1)C(=O)N[C@H](C(=O)N[C@H](C(=O)N[C@@H](CC(C)C)C(=O)N[C@@H](CC(=O)O)C(=O)N[C@@H](Cc1ccccc1)C(=O)N[C@@H](CC(C)C)C(=O)N[C@@H](C)C(=O)N[C@@H](C)C(=O)N[C@@H](CCCNC(=N)N)C(=O)N[C@@H](CC(=O)O)C(=O)N[C@@H](Cc1ccccc1)C(=O)N[C@H](C(=O)N[C@@H](CC(N)=O)C(=O)N[C@@H](Cc1c[nH]c2ccccc12)C(=O)N[C@@H](CC(C)C)C(=O)N[C@H](C(=O)N[C@@H](CCC(N)=O)C(=O)N[C@H](C(=O)N[C@@H](CCCCN)C(N)=O)[C@@H](C)O)[C@@H](C)CC)[C@@H](C)CC)[C@@H](C)CC)[C@@H](C)O` (stereo partly drawn), the Ratio EC50 in data set [1] is greater than 11000. The EC50 in data set [2] was 0.09 nM; in data set [3], greater than 1000 nM. In data set [4], the clearance is 0.3 mL/min/kg.

As to `CCCCC(NC(=O)[C@H](CCC(=O)O)NC(=O)[C@H](CC(=O)O)NC(=O)[C@H](CO)NC(=O)[C@H](Cc1ccccc1)NC(=O)[C@H](CO)NC(=O)CNC(=O)[C@H](CC(=O)O)NC(=O)CNC(=O)[C@@H](N)Cc1cnc[nH]1)C(=O)N[C@H](Cc1ccccc1)C(=O)N[C@H](C(=O)N[C@H](C(=O)N[C@@H](CC(C)C)C(=O)N[C@@H](CC(=O)O)C(=O)N[C@@H](CC(C)C)C(=O)N[C@@H](CC(C)C)C(=O)N[C@@H](C)C(=O)N[C@@H](C)C(=O)N[C@@H](CCCNC(=N)N)C(=O)N[C@@H](CC(=O)O)C(=O)N[C@@H](Cc1ccccc1)C(=O)N[C@H](C(=O)N[C@@H](CC(N)=O)C(=O)N[C@@H](Cc1c[nH]c2ccccc12)C(=O)N[C@@H](CC(C)C)C(=O)N[C@H](C(=O)N[C@@H](CCC(N)=O)C(=O)N[C@H](C(=O)N[C@@H](CCCCN)C(=O)N[C@H](C(=O)N[C@H](C(=O)N[C@@H](CC(=O)O)C(=O)NCCCOCCOCCOCCCNC(=O)COCC(N)=O)[C@@H](C)O)[C@@H](C)CC)[C@@H](C)O)[C@@H](C)CC)[C@@H](C)CC)[C@@H](C)CC)[C@@H](C)O` (stereo partly drawn), in data set [1], the Ratio EC50 is greater than 33000. For the same molecule, the EC50 was 0.03 nM in data set [2] and greater than 1000 nM in data set [3]. Besides, the clearance in data set [4] amounted to 0.28 mL/min/kg.

`CCCCC(NC(=O)[C@@H](CCC(=O)O)NC(=O)[C@@H](CC(=O)O)NC(=O)[C@@H](CO)NC(=O)[C@@H](Cc1ccccc1)NC(=O)[C@@H](CO)NC(=O)CNC(=O)[C@@H](CC(=O)O)NC(=O)CNC(=O)[C@@H](N)Cc1cnc[nH]1)C(=O)N[C@@H](Cc1cccc(Cl)c1)C(=O)N[C@@H](C(=O)N[C@@H](C(=O)N[C@H](CC(C)C)C(=O)N[C@H](CC(=O)O)C(=O)NC(Cc1ccc2ccccc2c1)C(=O)N[C@@H](CC(C)C)C(=O)N[C@@H](C)C(=O)N[C@@H](C)C(=O)N[C@@H](CCCNC(=N)N)C(=O)N[C@@H](CC(=O)O)C(=O)N[C@@H](Cc1ccccc1)C(=O)N[C@H](C(=O)N[C@@H](CC(N)=O)C(=O)N[C@H](Cc1c[nH]c2ccccc12)C(=O)N[C@H](CC(C)C)C(=O)N[C@@H](C(=O)N[C@H](CCC(N)=O)C(=O)N[C@@H](C(=O)N[C@H](CCCCN)C(=O)N[C@@H](C(=O)N[C@@H](C(=O)N[C@@H](CC(=O)O)C(N)=O)[C@H](C)O)[C@@H](C)CC)[C@H](C)O)[C@@H](C)CC)[C@H](C)CC)[C@@H](C)CC)[C@H](C)O` (stereo partly drawn): the Ratio EC50 in data set [1] is greater than 1900. For the same molecule, the results for the 50% effective concentration (EC50) in data set [2] and in data set [3] were 0.51 nM and greater than 1000 nM, respectively. Moreover, in data set [4], the clearance is 0.11 mL/min/kg.

With `CCCCC(NC(=O)[C@H](CCC(=O)O)NC(=O)[C@H](CC(=O)O)NC(=O)[C@H](CO)NC(=O)[C@H](Cc1ccccc1)NC(=O)[C@H](CO)NC(=O)CNC(=O)[C@H](CC(=O)O)NC(=O)CNC(=O)[C@@H](N)Cc1cnc[nH]1)C(=O)N[C@H](Cc1ccccc1)C(=O)N[C@H](C(=O)N[C@H](C(=O)N[C@@H](CC(C)C)C(=O)N[C@@H](CC(=O)O)C(=O)N[C@@H](Cc1ccccc1)C(=O)N[C@@H](CC(C)C)C(=O)N[C@@H](C)C(=O)N[C@@H](C)C(=O)N[C@@H](CCCNC(=N)N)C(=O)N[C@@H](CC(=O)O)C(=O)N[C@@H](Cc1ccccc1)C(=O)N[C@H](C(=O)N[C@@H](CC(N)=O)C(=O)N[C@@H](Cc1c[nH]c2ccccc12)C(=O)N[C@@H](CC(C)C)C(=O)N[C@H](C(=O)N[C@@H](CCC(N)=O)C(=O)N[C@H](C(=O)N[C@@H](CCCCN)C(=O)N[C@H](C(=O)N[C@H](C(=O)N[C@@H](CC(=O)O)C(=O)O)[C@@H](C)O)[C@@H](C)CC)[C@@H](C)O)[C@@H](C)CC)[C@@H](C)CC)[C@@H](C)CC)[C@@H](C)O` (stereo partly drawn), the Ratio EC50 in data set [1] is greater than 16000. For the same molecule, the EC50 in data set [2] was 0.06 nM; in data set [3], greater than 1000 nM. The molecule also returned a clearance in data set [4] of 0.15 mL/min/kg.
